This is an account of results in patent US5691373A, “Nonpeptide endothelin antagonists I” (Warner-Lambert Company, priority 1995, dated 1997).

For test [1], the target named is T1, ETA (Oryctolagus cuniculus, UniProt A5A8K3).
T1 sequence (A5A8K3 21-427): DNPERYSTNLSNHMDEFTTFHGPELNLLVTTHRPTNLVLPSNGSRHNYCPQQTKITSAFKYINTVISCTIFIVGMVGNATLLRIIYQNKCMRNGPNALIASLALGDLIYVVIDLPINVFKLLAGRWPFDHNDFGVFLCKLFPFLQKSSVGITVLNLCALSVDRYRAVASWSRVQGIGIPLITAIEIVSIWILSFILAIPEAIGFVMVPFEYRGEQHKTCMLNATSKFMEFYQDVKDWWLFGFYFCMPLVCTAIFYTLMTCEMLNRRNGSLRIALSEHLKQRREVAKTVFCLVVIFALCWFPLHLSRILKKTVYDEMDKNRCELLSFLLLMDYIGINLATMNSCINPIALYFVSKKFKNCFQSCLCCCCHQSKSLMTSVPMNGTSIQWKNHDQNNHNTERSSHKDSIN
Procedure: The cells used were rabbit renal artery vascular smooth muscle cells grown in a 48-well dish (1 cm^2) (confluent cells).
The growth media was Dulbecco's Modified Eagles/Ham's F12 which contained 10% fetal bovine serum and antibiotics (penicillin/streptomycin/fungizone).
Second, remove the assay buffers, place the dish on ice, and add 150 μL of cold assay buffer described above to each well. […] Next, place dish in a 37° C., water bath for about 2 hours and gently agitate the dish every 15 minutes. Discard the radioactive incubation mixture in the sink and wash wells 3 times with 1 mL of cold phosphate buffered saline.

For test [2], the target named is T1, ETA. Briefly: VERA-A: antagonism of ET-1 stimulated vasoconstriction in the rabbit femoral artery (ETA). In kind it is cell-based. The procedure: Male New Zealand rabbits were killed by cervical dislocation and exsanguination. Femoral and pulmonary arteries were isolated, cleaned of connective tissue, and cut into 4-mm rings. The endothelium was denuded by placing the rings over hypodermic tubing (32 gauge for femoral rings and 28 gauge for pulmonary rings, Small Parts, Inc, Miami, Fla.) and gently rolling them. […] Resting tension was adjusted to 3.0 g for femoral and 4.0 g pulmonary arteries; the rings were left for 90 minutes to equilibrate.

Test [3] addresses T2, human ETB receptor (Homo sapiens, UniProt P24530).
T2 construct: expressed in transfected cells; host or cells: CHO-K1 cells, pRc-CMW (so in the source) expression vector, electroporation; membranes used
T2 sequence (P24530 27-442): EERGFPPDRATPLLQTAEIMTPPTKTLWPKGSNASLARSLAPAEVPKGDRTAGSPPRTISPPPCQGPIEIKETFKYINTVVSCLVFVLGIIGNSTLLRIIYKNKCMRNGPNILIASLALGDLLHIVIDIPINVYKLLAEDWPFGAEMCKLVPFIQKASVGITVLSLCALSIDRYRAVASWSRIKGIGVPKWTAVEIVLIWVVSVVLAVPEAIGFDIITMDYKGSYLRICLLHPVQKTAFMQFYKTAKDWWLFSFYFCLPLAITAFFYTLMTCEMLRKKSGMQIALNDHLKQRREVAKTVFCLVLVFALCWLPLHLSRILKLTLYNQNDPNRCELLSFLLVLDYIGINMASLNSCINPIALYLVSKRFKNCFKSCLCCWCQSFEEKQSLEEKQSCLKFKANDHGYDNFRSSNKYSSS
Kind of test: ERBA-B: [125I]-ET-1 binding, recombinant human ETB receptor expressed in CHO-K1 cells.

Test [4] addresses T1, ETA. The source holds these as a separate data set.
For test [5], the target named is T3, ETB (Rattus norvegicus, UniProt P21451).
T3 sequence (P21451 27-442): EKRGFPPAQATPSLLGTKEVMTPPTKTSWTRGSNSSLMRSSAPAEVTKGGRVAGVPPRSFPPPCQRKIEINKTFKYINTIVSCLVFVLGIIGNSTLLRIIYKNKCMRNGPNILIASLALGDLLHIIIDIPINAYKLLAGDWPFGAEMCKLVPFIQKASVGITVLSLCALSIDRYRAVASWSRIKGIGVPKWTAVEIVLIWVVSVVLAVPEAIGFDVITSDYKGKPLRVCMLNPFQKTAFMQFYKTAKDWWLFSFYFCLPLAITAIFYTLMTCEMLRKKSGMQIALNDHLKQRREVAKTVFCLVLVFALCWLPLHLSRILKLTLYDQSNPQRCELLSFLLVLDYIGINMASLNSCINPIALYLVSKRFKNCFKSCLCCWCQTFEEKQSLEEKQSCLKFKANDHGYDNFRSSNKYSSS

Setting [6] is: read-out: ERBA-A IC50, [125I]-ET-1, rabbit renal artery vascular smooth muscle cells.
The mark [7] stands for this setting: human cloned ETB receptor, read-out: ERBA-B IC50, human cloned receptor data.
[8] abbreviates: read-out: AAR-A, ET-1 (0.3 nM) stimulated arachidonic acid release.
[9] abbreviates: ERBA-A IC50, [125I]-ET-1, rabbit renal artery vascular smooth muscle cells.
Setting [10] is: ET-1, rabbit femoral artery, read-out: VERA-A pA2 (converted).

Read-outs that look alike come from different tables or passages of the source.

With `COc1ccc(C2(O)OC(=O)C(c3ccc4c(c3)OCO4)=C2CC2CCCCC2)cc1` (stereo not drawn) [Example 221, 3-Benzo[1,3]dioxol-5-yl-4-cyclohexylmethyl-5-hydroxy-5-(4-methoxyphenyl)-5H -furan-2-one], the IC50 in test [1] (setting [6]) is 20 nM; in test [3] (setting [7]), 240 nM; in test [4] (setting [8]), 120 nM. Besides, the “VERA-A pA2” value in test [2] (ET-1, rabbit femoral artery) was found to be 6.4.

Regarding `COc1ccc(C2(O)OC(=O)C(c3ccc4c(c3)OCO4)=C2Cc2ccc(C)cc2)cc1` (stereo not drawn) [Example 76], the IC50 is 50 nM in test [1] (setting [9]), 520 nM in test [4] and 390 nM in test [5].

On to `COc1ccc(C2(O)OC(=O)C(c3ccc4c(c3)OCO4)=C2Cc2ccc(NC(C)=O)cc2)cc1C` (stereo not drawn) [Example 384, N-{4-[4-Benzo[1,3]dioxol-5-yl-2-hydroxy-2-(4-methoxy-3-methyl-phenyl)-5-oxo-2,5-dihydro-furan-3-ylmethyl]-phenyl}-acetamide], for which the IC50 in test [1] (setting [9]) was 1 nM; in test [3] (setting [7]), 760 nM; in test [4], 0.21 nM. In addition, the Kb in test [2] (setting [10]) was 50.1 nM.

On to `COc1ccc(C(=O)/C(Cc2cc(OC)c(OC)c(OC)c2)=C(\C(=O)O)c2ccc3c(c2)OCO3)cc1` [Example 354, Sodium 2-Benzo[1,3]dioxol-5-yl-4-(4-methoxy-phenyl)-4-oxo-3-(3,4,5-trimethoxy-benzyl)-but-2-enoate], for which the IC50 in test [1] (setting [9]) was 0.8 nM; in test [3] (ERBA-B IC50, human cloned receptor data), 910 nM; in test [4] it was less than 1 nM. The compound also had a Kb in test [2] of 31.6 nM.

Regarding `COc1ccc(C2(O)OC(=O)C(c3ccc4c(c3)OCO4)=C2Cc2cccc(Cl)c2)cc1` (stereo not drawn) [Example 75, 3-Benzo[1,3]dioxol-5-yl-4-(3-chlorobenzyl)-5-hydroxy-5-(4-methoxyphenyl)-5H -furan-2-one], the IC50 in test [1] (setting [9]) stood at 16 nM; in test [4], 71 nM; in test [5], 1200 nM.

Turning to `COc1ccc(C2(O)OC(=O)C(c3ccc4c(c3)OCO4)=C2Cc2ccc(OC)c(C)c2)cc1` (stereo not drawn) [Example 89, 3-Benzo[1,3]dioxol-5-yl-5-hydroxy-4-(4-methoxy-3-methylbenzyl)-5-(4-methoxyphenyl)-5H-furan-2-one], the IC50 in test [1] (setting [6]) was determined as 6 nM; in test [4] (setting [8]), 39 nM. Further, the “VERA-A pA2” value in test [2] (ET-1, rabbit femoral artery) is recorded as 6.3.

With `COc1ccc(C2(O)OC(=O)C(c3cc(OC)cc(OC)c3)=C2Cc2ccc(OC(C)C)c(OC)c2)cc1` (stereo not drawn) [Example 389, 3-(3,5-Dimethoxy-phenyl)-5-hydroxy-4-(4-isopropoxy-3-methoxy-benzyl)-5-(4-methoxy-phenyl)-5H-furan-2-one], the IC50 in test [1] (setting [9]) turned out to be 3.6 nM; in test [3] (setting [7]), 1100 nM; in test [4], 2.4 nM.

As to `COc1ccc(C2(O)OC(=O)C(c3ccc4c(c3)OCO4)=C2Cc2cccc(C)c2)cc1` (stereo not drawn) [Example 90, 3-Benzo[1,3]dioxol-5-yl-5-hydroxy-5-(4-methoxyphenyl)-4-(3-methylbenzyl)-5H -furan-2-one], the IC50 in test [1] (setting [9]) was determined as 20 nM; in test [3] (setting [7]), 3500 nM; in test [4], 88 nM.

Turning to `CCCOc1cccc(CC2=C(c3cc(OC)cc(OC)c3)C(=O)OC2(O)c2ccc(OC)cc2)c1` (stereo not drawn) [Example 126, 3-(3,5-Dimethoxyphenyl)-5-hydroxy-5-(4-methoxyphenyl)-4-(3-propoxybenzyl)-5 H-furan-2-one], the IC50 is 10 nM in test [1] (setting [9]), 1500 nM in test [3] (setting [7]) and 86 nM in test [4]. For the same compound, in test [2] (setting [10]), the Kb was 200 nM.

Regarding `COc1ccc(C2(O)OC(=O)C(c3cc(OC)cc(OC)c3)=C2Cc2cccnc2)cc1` (stereo not drawn) [Example 133, 3-(3,5-Dimethoxyphenyl)-5-hydroxy-5-(4-methoxyphenyl)-4-pyridin-3methyl-5H-furan-2-one], the IC50 in test [1] (setting [9]) amounted to 30 nM; in test [3] (setting [7]), 6800 nM; in test [4] it was 76 nM.

Regarding `COc1ccc(C2(O)OC(=O)C(c3ccc4c(c3)OCO4)=C2Cc2cc(OC)c(OC)c(OC)c2)cc1C` (stereo not drawn) [Example 383, 3-Benzo[1,3]dioxol-5-yl-5-hydroxy-5-(4-methoxy-3-methyl-phenyl)-4-(3,4,5-trimethoxy-benzyl)-5H-furan-2-one], the IC50 in test [1] (setting [9]) came to 0.5 nM; in test [3] (setting [7]) it was 290 nM; in test [4] it was 7400 nM.

On to `COc1ccc(C2(O)OC(=O)C(c3ccc4c(c3)OCO4)=C2Cc2ccccc2)cc1OC` (stereo not drawn) [Example 190, 3-Benzo[1,3]dioxol-5-yl-4-benzyl-5-(3,4-dimethoxyphenyl)-5-hydroxy-5H-furan-2-one], for which the IC50 in test [1] (setting [9]) stood at 65 nM; in test [4], 780 nM; in test [5] it was 750 nM.

As to `COc1ccc(C2(O)OC(=O)C(c3ccc4c(c3)OCO4)=C2Cc2ccc(N(C)C)cc2)cc1` (stereo not drawn) [Example 85, 3-Benzo[1,3]dioxol-5-yl-4-(4-dimethylaminobenzyl)-5-hydroxy-5-(4-methoxyphenyl)-5H-furan-2-one], the IC50 in test [1] (setting [9]) was determined as 23 nM; in test [3] (setting [7]) it was 1600 nM; in test [4] it was 200 nM. The Kb in test [2] (setting [10]) was 398 nM.

As to `COc1ccc(C2(O)OC(=O)C(c3cc(OC)cc(OC)c3)=C2Cc2cccc(C(F)(F)F)c2)cc1` (stereo not drawn) [Example 128, 3-(3,5-Dimethoxyphenyl)-5-hydroxy-5-(4-methoxyphenyl)-4-(3-trifluoromethylbenzyl)-5H-furan-2-one], the IC50 in test [1] (setting [9]) is 23 nM; in test [3] (setting [7]) it was 1600 nM; in test [4], 210 nM. In addition, the Kb in test [2] (setting [10]) was 1260 nM.

In the case of `COC(=O)c1ccc(CC2=C(c3ccc4c(c3)OCO4)C(=O)OC2(O)c2ccc(OC)cc2)cc1` (stereo not drawn) [Example 182, 4-[4-Benzo[1,3]dioxol-5-yl-2-hydroxy-2-(4-methoxyphenyl)-5-oxo-2,5-dihydrof uran-3-ylmethyl]benzoic acid methyl ester], the IC50 in test [1] (setting [9]) amounted to 16 nM; in test [3] (setting [7]), 2000 nM; in test [4], 50 nM.

Take `COc1ccc(C2(O)OC(=O)C(c3cc(OC)cc(OC)c3)=C2Cc2cccc(OC)c2)cc1` (stereo not drawn) [Example 130, 3-(3,5-Dimethoxyphenyl)-5-hydroxy-4-(3-methoxybenzyl)-5-(4-methoxyphenyl)-5 H-furan-2-one]: the IC50 came out at 97 nM in test [1] (setting [9]), 1200 nM in test [3] (setting [7]) and 30 nM in test [4]. Moreover, the Kb in test [2] (setting [10]) is 200 nM.

Consider `COc1ccc(C2(O)OC(=O)C(c3cc(OC)cc(OC)c3)=C2Cc2cccc(Cl)c2)cc1` (stereo not drawn) [Example 127, 4-(3-Chlorobenzyl)-3-(3,5-dimethoxyphenyl)-5-hydroxy-5-(4-methoxyphenyl)-5H -furan-2-one], for which the values for the IC50 in test [1] (setting [9]), in test [3] (setting [7]) and in test [4] were 13 nM, 1200 nM and 150 nM, respectively. In test [2] (setting [10]), the Kb was 631 nM.

`COc1ccc(C2(O)OC(=O)C(c3cc(OC)cc(OC)c3)=C2Cc2cc(OC)c(OC)c(OC)c2)cc1` (stereo not drawn) [Example 388, 3-(3,5-Dimethoxy-phenyl)-5-hydroxy-5-(4-methoxyphenyl)-4-(3,4,5-trimethoxy-benzyl)-5H-furan-2-one]: the results for the IC50 in test [1] (setting [9]), in test [3] (setting [7]) and in test [4] were 1.4 nM, 1100 nM and 0.26 nM, respectively. For the same compound, in test [2] (setting [10]), the Kb is 100 nM.
